# According to ChEMBL document CHEMBL5143699, “Identification of novel indole derivatives as highly potent AMPK activators with anti-diabetic profiles” (Bioorg Med Chem Lett, 2022):
# Active and inactive are the calls of the source. The calls are words filed in the database; no cut-off is given here.
# How the values were obtained:
# [1] = biological target: AMPK alpha2/beta2/gamma1 (Homo sapiens) (UniProt P54646+O43741+P54619); experiment: Activation of human recombinant AMPK A2/B2/G1 assessed as increase in AMPK phosphorylation using FL-peptide as substrate incubated for 120 mins by EZ reader method; format: protein-complex assay
# Sequence of AMPK alpha2/beta2/gamma1 (Homo sapiens) (P54619 whole entry, looked up, one chain of several): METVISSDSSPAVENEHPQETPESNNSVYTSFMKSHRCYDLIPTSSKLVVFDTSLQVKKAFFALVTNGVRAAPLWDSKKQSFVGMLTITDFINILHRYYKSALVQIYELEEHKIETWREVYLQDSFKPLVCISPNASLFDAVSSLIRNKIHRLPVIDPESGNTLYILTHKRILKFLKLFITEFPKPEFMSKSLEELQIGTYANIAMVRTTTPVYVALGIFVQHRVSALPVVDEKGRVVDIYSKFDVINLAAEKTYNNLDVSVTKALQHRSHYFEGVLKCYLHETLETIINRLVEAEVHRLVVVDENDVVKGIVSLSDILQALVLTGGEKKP
# Sequence of AMPK alpha2/beta2/gamma1 (Homo sapiens) (P54646 whole entry, looked up, one chain of several): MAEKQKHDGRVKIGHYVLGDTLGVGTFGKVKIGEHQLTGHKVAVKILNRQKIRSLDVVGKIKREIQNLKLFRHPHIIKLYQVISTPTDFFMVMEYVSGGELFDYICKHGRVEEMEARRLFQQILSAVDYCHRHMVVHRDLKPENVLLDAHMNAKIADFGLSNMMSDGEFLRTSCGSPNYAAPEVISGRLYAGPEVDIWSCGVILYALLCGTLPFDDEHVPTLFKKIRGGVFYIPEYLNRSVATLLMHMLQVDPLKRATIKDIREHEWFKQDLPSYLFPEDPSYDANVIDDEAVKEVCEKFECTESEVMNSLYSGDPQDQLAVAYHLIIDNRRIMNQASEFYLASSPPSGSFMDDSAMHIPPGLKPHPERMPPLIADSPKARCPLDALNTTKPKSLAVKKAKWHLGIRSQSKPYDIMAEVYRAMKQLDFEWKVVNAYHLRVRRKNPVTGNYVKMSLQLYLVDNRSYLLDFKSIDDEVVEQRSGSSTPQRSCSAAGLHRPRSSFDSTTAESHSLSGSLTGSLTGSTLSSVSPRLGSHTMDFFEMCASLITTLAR
# [2] = Protein binding in serum (unknown origin) assessed as unbound fraction by equilibrium dialysis assay; format: ADME, cell-free
# [3] = […] of the compound in rat muscle at 1 mg/kg, po or 0.5 mg/kg, iv; format: ADME, organism-based
# [4] = […] of the compound in rat liver at 1 mg/kg, po or 0.5 mg/kg, iv; format: ADME, organism-based
# [5] = Cmax in rat at 1 mg/kg, po or 0.5 mg/kg, iv; format: ADME, organism-based; parameters: dose 1 mg/kg, route po; details: in vivo
# Cytochrome P450 1A2 = biological target: T1, Cytochrome P450 1A2 (Homo sapiens, UniProt P05177); experiment: Inhibition of CYP1A2 in human liver microsomes using 7-ethoxyresorufin as substrate; format: ADME, Microsome
# T1 sequence (P05177 whole entry): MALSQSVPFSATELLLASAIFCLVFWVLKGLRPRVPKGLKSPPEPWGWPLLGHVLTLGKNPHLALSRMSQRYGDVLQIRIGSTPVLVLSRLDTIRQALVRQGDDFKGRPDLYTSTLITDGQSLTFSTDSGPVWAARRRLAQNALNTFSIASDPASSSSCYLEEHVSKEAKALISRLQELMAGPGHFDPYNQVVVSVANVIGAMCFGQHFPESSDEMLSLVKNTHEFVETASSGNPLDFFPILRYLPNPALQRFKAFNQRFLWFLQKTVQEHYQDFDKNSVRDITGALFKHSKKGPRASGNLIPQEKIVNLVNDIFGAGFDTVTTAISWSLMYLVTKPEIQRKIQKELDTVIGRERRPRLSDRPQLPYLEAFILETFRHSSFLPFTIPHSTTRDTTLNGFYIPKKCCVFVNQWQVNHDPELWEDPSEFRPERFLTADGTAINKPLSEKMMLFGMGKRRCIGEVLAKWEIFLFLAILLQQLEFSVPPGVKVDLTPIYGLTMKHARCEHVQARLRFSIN
# [6] = AUC in rat at 1 mg/kg, po; format: ADME, organism-based; parameters: dose 1 mg/kg, route po; details: in vivo
# Cytochrome P450 2D6 = Cytochrome P450 2D6 (Homo sapiens, UniProt P10635); experiment: Inhibition of CYP2D6 in human liver microsomes using dextromethorphan as substrate; format: ADME, Microsome
# Sequence of Cytochrome P450 2D6 (P10635 whole entry): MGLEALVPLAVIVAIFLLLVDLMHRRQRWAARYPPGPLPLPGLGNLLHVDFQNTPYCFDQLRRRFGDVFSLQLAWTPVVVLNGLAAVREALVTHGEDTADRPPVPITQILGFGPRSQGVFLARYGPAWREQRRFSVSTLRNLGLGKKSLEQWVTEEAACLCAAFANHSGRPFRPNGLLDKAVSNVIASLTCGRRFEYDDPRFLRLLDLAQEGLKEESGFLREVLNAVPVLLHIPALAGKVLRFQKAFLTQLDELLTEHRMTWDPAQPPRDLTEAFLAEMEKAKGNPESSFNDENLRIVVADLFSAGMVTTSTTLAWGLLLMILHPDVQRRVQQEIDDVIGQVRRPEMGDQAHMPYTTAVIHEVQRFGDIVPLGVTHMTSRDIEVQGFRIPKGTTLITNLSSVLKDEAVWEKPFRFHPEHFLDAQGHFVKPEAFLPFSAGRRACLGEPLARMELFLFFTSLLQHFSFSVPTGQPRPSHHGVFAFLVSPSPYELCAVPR
# Cytochrome P450 3A4 = Cytochrome P450 3A4 (Homo sapiens, UniProt P08684); experiment: Inhibition of CYP3A4 in human liver microsomes using terfenedine as substrate; format: ADME, Microsome
# Sequence of Cytochrome P450 3A4 (P08684 whole entry): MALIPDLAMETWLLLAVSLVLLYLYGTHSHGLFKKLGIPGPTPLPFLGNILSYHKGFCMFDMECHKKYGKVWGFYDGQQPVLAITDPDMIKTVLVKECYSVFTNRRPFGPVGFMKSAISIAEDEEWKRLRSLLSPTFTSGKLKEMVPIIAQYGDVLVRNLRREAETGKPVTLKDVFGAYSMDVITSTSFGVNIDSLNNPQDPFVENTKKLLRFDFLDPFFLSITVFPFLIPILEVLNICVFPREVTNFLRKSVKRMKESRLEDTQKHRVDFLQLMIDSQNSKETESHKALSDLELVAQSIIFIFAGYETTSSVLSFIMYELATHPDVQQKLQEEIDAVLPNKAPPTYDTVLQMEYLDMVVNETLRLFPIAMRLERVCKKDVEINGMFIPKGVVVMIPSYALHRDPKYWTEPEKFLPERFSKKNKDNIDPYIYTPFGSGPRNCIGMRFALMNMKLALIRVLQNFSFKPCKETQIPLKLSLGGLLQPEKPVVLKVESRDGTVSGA
# [7] = Metabolic stability in human liver microsomes assessed as compound remaining measured after 30 mins; format: ADME, Microsome; details: read-out: Stability
# Cytochrome P450 2C9 = Cytochrome P450 2C9 (Homo sapiens, UniProt P11712); experiment: Inhibition of CYP2C9 in human liver microsomes using tolbutamide as substrate; format: ADME, Microsome
# Sequence of Cytochrome P450 2C9 (P11712 whole entry): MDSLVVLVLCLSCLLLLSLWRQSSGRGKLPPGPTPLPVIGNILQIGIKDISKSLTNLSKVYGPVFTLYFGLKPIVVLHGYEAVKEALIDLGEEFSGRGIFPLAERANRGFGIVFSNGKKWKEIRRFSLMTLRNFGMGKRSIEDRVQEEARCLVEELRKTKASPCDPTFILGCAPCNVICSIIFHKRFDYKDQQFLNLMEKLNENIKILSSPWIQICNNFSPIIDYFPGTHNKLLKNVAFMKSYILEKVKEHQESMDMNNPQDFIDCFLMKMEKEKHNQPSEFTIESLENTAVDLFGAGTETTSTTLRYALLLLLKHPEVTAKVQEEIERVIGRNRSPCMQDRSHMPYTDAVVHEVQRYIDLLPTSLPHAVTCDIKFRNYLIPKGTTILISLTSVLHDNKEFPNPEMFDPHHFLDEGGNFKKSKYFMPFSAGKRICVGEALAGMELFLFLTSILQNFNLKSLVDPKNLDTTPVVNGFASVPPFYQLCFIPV
# [8] = Metabolic stability in rat liver microsomes assessed as compound remaining measured after 30 mins; format: ADME, Microsome; details: read-out: Stability
# Cytochrome P450 2C19 = Cytochrome P450 2C19 (Homo sapiens, UniProt P33261); experiment: Inhibition of CYP2C19 in human liver microsomes using mephenytoin as substrate; format: ADME, Microsome
# Sequence of Cytochrome P450 2C19 (P33261 whole entry): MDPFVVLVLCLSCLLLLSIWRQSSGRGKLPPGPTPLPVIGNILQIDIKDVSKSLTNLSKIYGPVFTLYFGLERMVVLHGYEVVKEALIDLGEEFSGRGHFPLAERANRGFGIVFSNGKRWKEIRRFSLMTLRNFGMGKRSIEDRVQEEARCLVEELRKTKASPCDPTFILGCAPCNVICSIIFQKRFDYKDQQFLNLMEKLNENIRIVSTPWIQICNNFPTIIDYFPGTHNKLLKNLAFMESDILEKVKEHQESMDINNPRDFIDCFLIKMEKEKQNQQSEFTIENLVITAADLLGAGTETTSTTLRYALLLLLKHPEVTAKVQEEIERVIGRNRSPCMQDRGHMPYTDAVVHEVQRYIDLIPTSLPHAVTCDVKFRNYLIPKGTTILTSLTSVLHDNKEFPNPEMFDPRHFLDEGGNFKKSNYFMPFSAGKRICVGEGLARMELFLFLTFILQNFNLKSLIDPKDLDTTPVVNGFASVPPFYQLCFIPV
# [9] = biological target: T2, 5'-AMP-activated protein kinase subunit beta-1 (Rattus norvegicus, UniProt P80386); experiment: Activation of rat liver AMPK-beta1 using SAMS peptide as substrate incubated for 10 mins by microplate reader assay; format: tissue-based
# T2 sequence (P80386 whole entry): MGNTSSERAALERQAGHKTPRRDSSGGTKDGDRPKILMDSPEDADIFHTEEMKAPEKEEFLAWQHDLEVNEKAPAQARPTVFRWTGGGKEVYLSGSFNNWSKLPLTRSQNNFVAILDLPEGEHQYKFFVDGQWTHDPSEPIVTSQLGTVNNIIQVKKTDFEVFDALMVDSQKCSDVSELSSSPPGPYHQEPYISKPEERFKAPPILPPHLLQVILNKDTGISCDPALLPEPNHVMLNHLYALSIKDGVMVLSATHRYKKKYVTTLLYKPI
# [10] = biological target: T3, 5'-AMP-activated protein kinase subunit beta-2 (Homo sapiens, UniProt O43741); experiment: Activation of recombinant AMPK-beta2 (unknown origin) assessed as increase in AMPK phosphorylation by DELFIA fluorescence assay
# T3 sequence (O43741 whole entry): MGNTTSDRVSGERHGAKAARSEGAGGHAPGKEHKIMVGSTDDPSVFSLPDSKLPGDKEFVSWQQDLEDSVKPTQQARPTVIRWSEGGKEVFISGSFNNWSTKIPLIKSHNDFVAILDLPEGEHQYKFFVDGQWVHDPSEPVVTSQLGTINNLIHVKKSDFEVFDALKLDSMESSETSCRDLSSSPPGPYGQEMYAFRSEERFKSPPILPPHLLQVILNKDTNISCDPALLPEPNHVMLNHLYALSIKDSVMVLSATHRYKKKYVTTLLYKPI
# [11] = biological target: T4, 5'-AMP-activated protein kinase (Mus musculus) (UniProt Q5EG47+Q8BRK8+Q6PAM0+O54950+Q91WG5+Q9R078+Q8BGM7); experiment: In vivo activation of AMPK in mouse liver assessed as increase in AMPKalpha phosphorylation level at 0.08 to 6.75 mg/kg,po by western blot method; format: functional, organism-based; details: dose 0.08-6.75 mg/kg, DDE = dose-dependent effect
# [12] = biological target: T4, 5'-AMP-activated protein kinase (Mus musculus); experiment: In vivo activation of AMPK in mouse skeletal muscle assessed as increase in ACC phosphorylation level at 0.08 to 6.75 mg/kg,po by ELISA; format: functional, organism-based; details: Skeletal muscle tissue, dose 0.08-6.75 mg/kg, DDE = dose-dependent effect
# Mus musculus [13] = experiment: Antidiabetic activity against type 2 diabetic KKAy mouse model assessed as decrease in HbA1c level administrated orally bid measured after 21 days of administration by automatic analyzer; format: functional, organism-based; details: route po, time 21.0 day, DDE = dose-dependent effect
# Mus musculus [14] = experiment: Antidiabetic activity against type 2 diabetic KKAy mouse model assessed as decrease in plasma glucose level administrated orally bid measured after 21 days of administration by automatic analyzer; format: functional, organism-based; details: route po, time 21.0 day, DDE = dose-dependent effect
# Mus musculus [15] = experiment: Antidiabetic activity against type 2 diabetic KKAy mouse model assessed as decrease in lipid accumulation in liver at 1.5 to 6 mg/kg,po bid measured on 25 to 26 days after insulin injection; format: functional, organism-based; details: dose 1.5-6 mg/kg, time 25-26 day
# Mus musculus [16] = experiment: Antidiabetic activity against type 2 diabetic KKAy mouse model assessed as increase in Akt phosphorylation in skeletal muscle at 1.5 to 6 mg/kg,po bid measured on 25 to 26 days after insulin injection by ELISA; format: functional, organism-based; details: dose 1.5-6 mg/kg, time 25-26 day
# Mus musculus [17] = experiment: Antidiabetic activity against po dosed type 2 diabetic KKAy mouse model assessed as acute glucose lowering effect measured for 1 to 6 hrs; format: functional, organism-based; details: time 1-6 hrs, DDE = dose-dependent effect
smiles,measurement,setting,value
COCCOc1ccc(-c2ccc(-c3nc4cc(O[C@@H]5CO[C@H]6[C@@H]5OC[C@H]6O)[nH]c4cc3F)cc2)cc1,EC150,[1]; filed as activator,0.0073 µM
same,fraction unbound,[2],0.002
COc1ccc(-c2ccc(-c3nc4cc(O[C@@H]5CO[C@H]6[C@@H]5OC[C@H]6O)[nH]c4cc3F)cc2)cc1,EC150,[1]; filed as activator,0.011 µM
COCCOc1ccc(-c2ccc(-c3nc4cc(O[C@@H]5CO[C@H]6[C@@H]5OC[C@H]6O)[nH]c4cc3F)cc2)cn1,EC150,[1]; filed as activator,0.016 µM
CS(C)(=O)=Nc1ccc(-c2ccc(-c3nc4cc(O[C@@H]5CO[C@H]6[C@@H]5OC[C@H]6O)[nH]c4cc3F)cc2)cc1,Kp,[3],0.61
same,Kp,[4],2.4
same,Cmax,[5],68.7 ng/mL
same,IC50,Cytochrome P450 1A2,> 10 µM
same,AUC,[6],288 ng·h/mL
same,IC50,Cytochrome P450 2D6,> 10 µM
same,IC50,Cytochrome P450 3A4,> 10 µM
same,remaining at 0.5 h,[7],> 99%
same,EC150,[1]; filed as activator,0.001 µM
same,IC50,Cytochrome P450 2C9,> 10 µM
same,remaining at 0.5 h,[8],91%
same,IC50,Cytochrome P450 2C19,> 10 µM
same,fraction unbound,[2],0.016
O=S1(=Nc2ccc(-c3ccc(-c4nc5cc(O[C@@H]6CO[C@H]7[C@@H]6OC[C@H]7O)[nH]c5cc4F)cc3)cc2)CCCC1,Kp,[3],0.67
same,Kp,[4],3.34
same,Cmax,[5],43 ng/mL
same,AUC,[6],251 ng·h/mL
same,remaining at 0.5 h,[7],98%
same,EC150,[1]; filed as activator,0.002 µM
same,remaining at 0.5 h,[8],86%
same,IC50,Cytochrome P450 2C19,3.7 µM
same,fraction unbound,[2],0.01
O[C@@H]1CO[C@H]2[C@@H]1OC[C@H]2Oc1cc2nc(-c3ccc(-c4ccccc4)cc3)c(F)cc2[nH]1,EC150,[1]; filed as activator,0.017 µM
O[C@@H]1CO[C@H]2[C@@H]1OC[C@H]2Oc1cc2nc(-c3ccc(N4CCOCC4)cc3)c(F)cc2[nH]1,EC150,[1]; filed as activator,0.0053 µM
N#CC1=C(O)C2C(c3ccc(-c4ccccc4O)cc3)=CSC2NC1=O (stereo unspecified),EC50,[9],0.8 µM
Cn1c(O[C@@H]2CO[C@H]3[C@@H]2OC[C@H]3O)c(C#N)c2cc(-c3ccc(N4CCOCC4)cc3)c(Cl)cc21,EC150,[1],> 100 µM
N#Cc1c(O[C@@H]2CO[C@H]3[C@@H]2OC[C@H]3O)[nH]c2cc(Cl)c(-c3ccc(N4CCOCC4)cc3)nc12,EC150,[1]; filed as activator,0.087 µM
O=C(c1ccc(-c2ccc(-c3nc4cc(O[C@@H]5CO[C@H]6[C@@H]5OC[C@H]6O)[nH]c4cc3F)cc2)cc1)N1CCCC1,EC150,[1]; filed as activator,0.0018 µM
same,IC50,Cytochrome P450 2C19,7.4 µM
same,fraction unbound,[2],0.01
O[C@@H]1CO[C@H]2[C@@H]1OC[C@H]2Oc1cc2nc(-c3ccc(N4CCOCC4)cc3)c(Cl)cc2[nH]1,EC150,[1]; filed as activator,0.0019 µM
O=C1NC2SC(Cl)=C(c3ccc4c(c3O)CCCC4)C2C(O)=C1c1ccccc1 (stereo unspecified),EC50,[10],1.3 µM
N#Cc1c(O[C@@H]2CO[C@H]3[C@@H]2OC[C@H]3O)[nH]c2cc(Cl)c(-c3ccc(N4CCOCC4)cc3)cc12,EC150,[1]; filed as activator,0.039 µM
CS(C)(=O)=Nc1ccc(-c2ccc(-c3nc4cc(O[C@@H]5CO[C@H](CO)C5)[nH]c4cc3F)cc2)cc1,Kp,[3],0.63
same,Activity,[11],Dde
same,Activity,[12],Dde
same,Kp,[4],7.14
same,Cmax,[5],130 ng/mL
same,AUC,[6],810 ng·h/mL
same,Activity,Mus musculus [13],Dde
same,remaining at 0.5 h,[7],94%
same,EC150,[1]; filed as activator,0.001 µM
same,remaining at 0.5 h,[8],90%
same,Activity,Mus musculus [14],Dde
same,Activity,Mus musculus [15],Active
same,fraction unbound,[2],0.011
same,Activity,Mus musculus [16],Active
same,Activity,Mus musculus [17],Dde
CS(C)(=O)=Nc1ccc(-c2ccc(-c3nc4cc(O[C@@H]5CO[C@H]6[C@@H]5OC[C@H]6O)[nH]c4cc3F)cc2)nc1,Kp,[3],0.98
same,Kp,[4],2.19
same,Cmax,[5],44.8 ng/mL
same,IC50,Cytochrome P450 1A2,> 10 µM
same,AUC,[6],111 ng·h/mL
same,IC50,Cytochrome P450 2D6,> 10 µM
same,IC50,Cytochrome P450 3A4,> 10 µM
same,remaining at 0.5 h,[7],> 99%
same,EC150,[1]; filed as activator,0.0034 µM
same,IC50,Cytochrome P450 2C9,> 10 µM
same,remaining at 0.5 h,[8],83%
same,IC50,Cytochrome P450 2C19,> 10 µM
same,fraction unbound,[2],0.072
N#Cc1c(O[C@@H]2CO[C@H]3[C@@H]2OC[C@H]3O)[nH]c2ccc(-c3ccc(N4CCOCC4)cc3)cc12,EC150,[1]; filed as activator,0.38 µM
